Experiments:
[1] = system: phosphoglycerate kinase (PGK) expression; assay: PGK expression in murine embryonic fibroblasts; assay type: cell-based; conditions: 1 μM, 10 μM, vs wild type control (FIG. 12)
Description: FIG. 11 depicts the up regulation of phosphoglycerate kinase (PGK) expression in wild type murine embryonic fibroblasts as a result of treatment with a compound disclosed in Table VIII at dosages of 1 μM (E), 10 μM (F), and 50 μM (G) vs. wild type control (H) and the lack of up regulation of PGK expression in HIF-1 knock out cells as a result of treatment with a compound disclosed in Table VIII at dosages of 1 μM (A), 10 μM (B), and 50 μM (C) and HIF-1 knock out control (D). Both cell types were treated for 7 hours.

[2] = Solubility of pharmaceutically acceptable salts in water; assay type: physicochemical; conditions: distilled deionized water, sonicated 20 min, under 25° C., HPLC
Description: The formulator can determine the solubility of the pharmaceutically acceptable salts of the disclosed inhibitors by any method desirable. The following is a non-limiting example of a procedure for evaluating the solubility of a salt of a disclosed inhibitor. A suspension of tert-butyl-{[1-(4-chlorobenzyl)-3-hydroxy-2-oxo-1,2-dihydropyridin-4-yl]methyl}-piperazine-1-carboxylate methanesulfonate (26.6 mg) in distilled deionized water (3.0 mL) is sonicated for 20 min with water bath temperature under 25° C. The suspension is filtered to remove any insoluble salt. The clear filtrate solution (200 μL) is diluted with distilled deionized water (800 μL) and subjected to HPLC analysis. The following are results for the pharmaceutically acceptable salts outlined in Table VII above.

HIFPH2 (EGLN1) = HIFPH2 (EGLN1) (Homo sapiens (Human), UniProt Q9GZT9); assay: EGLN-1 Activity Assay (MALDI-TOF MS); assay type: biochemical; conditions: recombinant human EGLN-1-179/426, HIF-1α peptide 556-574
Description: The enzyme, quantity predetermined to hydroxylate 20% of substrate in 20 minutes, is added to start the reaction. Where inhibitors are used, compounds are prepared in dimethyl sulfoxide at 10-fold final assay concentration. After 20 minutes at room temperature, the reaction is stopped by transferring 10 μL of reaction mixture to 50 μL of a mass spectrometry matrix solution (α-cyano-4-hydroxycinnamic acid, 5 mg/mL in 50% acetonitrile/0.1% TFA, 5 mM NH4PO4). Two microliters of the mixture is spotted onto a MALDI-TOF MS target plate for analysis with an Applied Biosystems (Foster City, Calif.) 4700 Proteomics Analyzer MALDI-TOF MS equipped with a Nd:YAG laser (355 nm, 3 ns pulse width, 200 Hz repetition rate). Hydroxylated peptide product is identified from substrate by the gain of 16 Da. Data defined as percent conversion of substrate to product is analyzed in GraphPad Prism 4 to calculate IC50 values.

HIFPH2 (EGLN1), sequence (Q9GZT9 179-426): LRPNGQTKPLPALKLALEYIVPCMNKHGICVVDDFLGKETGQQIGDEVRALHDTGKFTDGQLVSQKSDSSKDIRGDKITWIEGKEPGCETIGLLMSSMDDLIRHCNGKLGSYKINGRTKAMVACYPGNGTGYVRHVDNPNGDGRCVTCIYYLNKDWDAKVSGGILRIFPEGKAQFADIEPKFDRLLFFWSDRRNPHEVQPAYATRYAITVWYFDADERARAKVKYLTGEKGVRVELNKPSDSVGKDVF

IC50 (HIFPH2 (EGLN1)) [µM] | SMILES | Solubility [2] [µg/mL] | also measured
– | O=c1c(O)cccn1Cc1cccc(Cl)c1 [Compound F2, 1-(3-chlorobenzyl)-3-hydroxypyridin-2(1H)-one] | – | PGK expression in wild type murine embryonic fibroblasts [1]: up regulation
– | CC(C)(C)OC(=O)N1CCN(Cc2ccn(Cc3ccc(Cl)cc3)c(=O)c2O)CC1.CS(=O)(=O)O [methanesulfonate, tert-butyl-{[1-(4-chlorobenzyl)-3-hydroxy-2-oxo-1,2-dihydropyridin-4-yl]methyl}-piperazine-1-carboxylate methanesulfonate] | 16600 | –
12 | O=c1c(O)c(CNCc2ccccc2)ccn1Cc1ccc(Cl)cc1 [Compound C1, 1-(4-chlorobenzyl)-3-hydroxy-4-[(4-benzylamino)methyl]pyridin-2(1H)-one] | – | –
– | CC(C)(C)OC(=O)N1CCN(Cc2ccn(Cc3ccc(Cl)cc3)c(=O)c2O)CC1 [Compound A41] | ~1 | –
17 | O=c1c(O)c(CN2CCN(Cc3ccccc3)CC2)ccn1Cc1ccccc1 [Compound B9, 1-benzyl-3-hydroxy-4-[(4-benzylpiperazin-1-yl)methyl]pyridin-2(1H)-one] | – | –
